Structures can show the parent of a compound that is named as a salt.
Assays:
[1] = biological target: nNOS (Homo sapiens, UniProt P29475); assay: nNOS enzyme assay (hemoglobin capture assay); assay type: biochemical; conditions: for IC50: hemoglobin capture assay, initial velocity, read-out: IC50 of NOS, nNOS; for inhibition at 100 µM: read-out: Percent Inhibition of NOS, nNOS
Method: (§1) The generation of nitric oxide by NOS was measured using the hemoglobin capture assay (Proc. Natl. Acad. Sci., U.S.A. 1990, 87, 714). As assay mixture for nNOS contained […], 1.6 mM CaCl2, […] calmoduline, […], 6.5 mM BH4 and 3 mM oxyhemoglobin in 100 mM Hepes (pH 7.5). The reaction mixture for iNOS contained 10 mM of L-arginine, […], 6.5 mM BH4 and 3 mM oxyhemoglobin in 100 mM Hepes (pH 7.5). All assays were in a final volume of […] and were initiated with enzyme. Nitric oxide reacts with oxyhemoglobin to yield methehemoglobin which is detected at 401 nm (e=19,700 M^−1cm^−1) on a Perkin-Elmer Lamda 10 UV/vis spectrophotometer.
(§2) IC50 and percent inhibition of NOS by the compounds of the invention was determined under initial velocity measurement condition with hemoglobin capture assay as described above using varying concentrations of the compounds of the invention.

[2] = biological target: iNOS (Homo sapiens, UniProt P35228); assay: iNOS enzyme assay (hemoglobin capture assay); assay type: biochemical; conditions: for IC50: hemoglobin capture assay, initial velocity, read-out: IC50 of NOS, iNOS; for inhibition at 100 µM: read-out: Percent Inhibition of NOS, iNOS
Method: as §1, §2

IC50 [1]	IC50 [2]	inhibition at 100 µM [1]	inhibition at 100 µM [2]	SMILES
400 µM	500 µM			CC(=O)Nc1ccc2c(c1)C(=O)Nc1ccccc1N2 [Example 7, N-(11-Oxo-10,11-dihydro-5H-dibenzo[b,e][1,4]diazepin-2-yl)-acetamide]
120 µM	300 µM			O=C(NC(=S)Nc1ccc2c(c1)C(=O)Nc1ccccc1N2)c1ccccc1 [Example 8, 1-Benzoyl-3-(11-oxo-10,11-dihydro-5H-dibenzo[b,e][1,4]diazepin-2-yl)-thiourea]
250 µM	300 µM			NC(=S)Nc1ccc2c(c1)C(=O)Nc1ccccc1N2 [Example 9, (11-Oxo-10,11-dihydro-5H-dibenzo[b,e][1,4]diazepin-2-yl)-thiourea]
20 µM	100 µM			CCSC(=N)Nc1ccc2c(c1)C(=O)Nc1ccccc1N2 [Example 10, 2-Ethyl-1-(11-oxo-10,11-dihydro-5H-dibenzo[b,e][1,4]diazepin-2-yl)-isothiourea]
200 µM	500 µM			CC(=N)Nc1ccc2c(c1)C(=O)Nc1ccccc1N2 [Example 11, N-(11-Oxo-10,11-dihydro-5H-dibenzo[b,e][1,4]diazeoin-2-yl)-acetamidine hydrobromide]
		21%	28%	N=C(Nc1ccc2c(c1)C(=O)Nc1ccccc1N2)SCc1ccc2ccccc2c1 [Example 12, 2-Naphthalen-2-ylmethyl-1-(11-oxo-10,11-dihydro-5H-dibenzo[b,e][1,4]diazepin-2-yl)-isothiourea]
		48%	29%	N=C(Nc1ccc2c(c1)C(=O)Nc1ccccc1N2)SCc1ccccc1 [Example 13, 2-Benzyl-1-(11-oxo-10,11-dihydro-5H-dibenzo[b,e][1,4]diazepin-2-yl)-isothiourea]
200 µM	300 µM			CC(=N)Nc1ccc2c(c1)C(=O)Nc1ccccc1O2 [Example 14, N-(11-Oxo-10,11-dihydro-dibenzo[b,f][1,4]oxazepin-2-yl)-acetamidine]
100 µM	200 µM			O=C(NC(=S)Nc1ccc2c(c1)C(=O)Nc1ccccc1O2)c1ccccc1 [Example 15, 1-Benzoyl-3-(11-oxo-10,11-dihydro-dibenzo[b,f][1,4]oxazepin-2-yl)-thiourea]
200 µM	150 µM			NC(=S)Nc1ccc2c(c1)C(=O)Nc1ccccc1O2 [Example 16, (11-Oxo-10,11-dihydro-dibenzo[b,f][1,4]oxazepin-2-yl)-thiourea]
		7%	24%	O=C1Nc2ccccc2Oc2ccc(NC(=S)Nc3ccccc3)cc21 [Example 17, 1-(11-Oxo-10,11-dihydro-dibenzo[b,f][1,4]oxazegin-2-yl)-3-phenyl-thiourea]
		25%	14%	N=C(Nc1ccc2c(c1)C(=O)Nc1ccccc1O2)c1cccs1 [Example 18, N-(11-Oxo-10,11-dihydro-dibenzo[b,f][1,4]oxazepin-2-yl)-thiophene-2-carboxamidine hyrobromide]
		42%	17%	N=C(Nc1ccc2c(c1)C(=O)Nc1ccccc1N2)c1cccs1 [Example 19, N-(11-Oxo-10,11-dihydro-5H-dibenzo[b,e][1,4]diazepin-2-yl)-thiophene-2-carboxamidine hydrobromide]

Reference: US6919328B1, “Tricyclic compounds with NOS activity” (Neuraxon Inc., priority 2001, dated 2005)
